Measured values as given in patent publication US20200131196A1 (Mount Tam Therapeutics, Inc., priority 2017, published 2020).
Each block holds one molecule with its values, some of them ahead of it.

Legend:
[1] = system: CRO-AP2; test: OncoPanel cell proliferation assay, CRO-AP2; type: cell-based, human; settings: for GI50: read-out: Cell Count GI50
Experimental: (§1) Cells were grown in RPMI 1640, 10% FBS, 2 mM L-alanyl-L-glutamine, 1 mM Na pyruvate, or a special medium. Cells were seeded into 384-well plates and incubated in a humidified atmosphere of 5% CO2 at 37° C. Compounds were added the day following cell seeding. At the same time, a time zero untreated cell plate was generated. After a 3-day incubation period, cells were fixed and stained to allow fluorescence imaging of nuclei. Compounds (1 mM stock solutions) were serially diluted in half-log steps from the highest test concentration ([…]), and assayed over 10 concentrations with a maximum assay concentration of 0.1% DMSO. Automated fluorescence microscopy was carried out using a Molecular Devices ImageXpress Micro XL high-content imager, and images were collected with a 4× objective. 16-bit TIFF images were acquired and analyzed with MetaXpress 5.1.0.41 software.
(§2) Cell proliferation was measured by the fluorescence intensity of an incorporated nuclear dye. The output is referred to as the relative cell count, where the measured nuclear intensity is transformed to percent of control (POC) using the following formula: […]
(§3) Cellular response parameters were calculated using nonlinear regression to a sigmoidal single-site dose response model:
(§4) EC50 is the test compound concentration at the curve inflection point or half the effective response (parameter C of the fitted curve solution). GI50 is the concentration needed to reduce the observed growth by half (midway between the curve maximum and the time zero value). “Cell Count Activity Area” is an estimate of the integrated area above the curve (Barretina, et al. The Cancer Cell Line Encyclopedia enables predictive modelling of anticancer drug sensitivity. Nature 483: 603-607). […] In rare instances, values <0 or >10 may be observed. […] Curve-fitting, calculations, and report generation was performed using a custom data reduction engine and MathIQ based software (AIM).

[2] = system: SCaBER; test: OncoPanel cell proliferation assay, SCaBER; type: cell-based, human; settings: for GI50: read-out: Cell Count GI50
Experimental: as §1, §2, §3, §4

[3] = system: U2OS; test: OncoPanel cell proliferation assay, U2OS; type: cell-based, human; settings: for GI50: read-out: Cell Count GI50
Experimental: as §1, with “Cells” for “Cells were grown in RPMI 1640, 10% FBS, 2 mM L-alanyl-L-glutamine, 1 mM Na pyruvate, or a special medium. Cells”
as §2, §3
(§5) GI50 is the concentration needed to reduce the observed growth by half (midway between the curve maximum and the time zero value). […] In rare instances, values <0 or >10 may be observed. […] Curve-fitting, calculations, and report generation was performed using a custom data reduction engine and MathIQ based software (AIM).

[4] = system: SK-NEP-1; test: OncoPanel cell proliferation assay, SK-NEP-1; settings: for EC50: SK-NEP-1, read-out: Cell Count EC50; for GI50: SK-NEP-1, read-out: Cell Count GI50; for Cell Count Activity Area: SK-NEP-1
Experimental: (§6) Cells were seeded into 384-well plates and incubated in a humidified atmosphere of 5% CO2 at 37° C. Compounds were added the day following cell seeding. At the same time, a time zero untreated cell plate was generated. After a 3-day incubation period, cells were fixed and stained to allow fluorescence imaging of nuclei. Compounds (1 mM stock solutions) were serially diluted in half-log steps from the highest test concentration (1 micromol), and assayed over 10 concentrations with a maximum assay concentration of 0.1% DMSO. Automated fluorescence microscopy was carried out using a Molecular Devices ImageXpress Micro XL high-content imager, and images were collected with a 4× objective. 16-bit TIFF images were acquired and analyzed with MetaXpress 5.1.0.41 software.

[5] = system: CML-T1; test: OncoPanel cell proliferation assay, CML-T1; type: cell-based, human; settings: for EC50: read-out: Cell Count EC50; for GI50: read-out: Cell Count GI50
Experimental: as §1, §2, §3, §4

[6] = system: SNU-C2B; test: OncoPanel cell proliferation assay, SNU-C2B; type: cell-based, human; settings: for EC50: read-out: Cell Count EC50; for GI50: read-out: Cell Count GI50
Experimental: as §1, §2, §3, §4

[7] = system: A101D; test: OncoPanel cell proliferation assay, A101D; type: cell-based, human; settings: for EC50: read-out: Cell Count EC50; for GI50: read-out: Cell Count GI50
Experimental: as §1, §2, §3, §4

[8] = system: Hs 729; test: OncoPanel cell proliferation assay, Hs 729; type: cell-based, human; settings: for GI50: read-out: Cell Count GI50; for IC50: read-out: Cell Count IC50
Experimental: as §1, §2, §3, §4

[9] = system: SW579; test: OncoPanel cell proliferation assay, SW579; type: cell-based, human; settings: for EC50: read-out: Cell Count EC50; for GI50: read-out: Cell Count GI50
Experimental: as §1, §2, §3, §4

[10] = system: TF-1; test: OncoPanel cell proliferation assay, TF-1; type: cell-based, human; settings: for GI50: read-out: Cell Count GI50; for IC50: read-out: Cell Count IC50
Experimental: as §1, §2, §3, §4

[11] = system: DMS114; test: OncoPanel cell proliferation assay, DMS114; type: cell-based, human; settings: for EC50: DMS-114, read-out: Cell Count EC50; for GI50: DMS-114, read-out: Cell Count GI50
Experimental: as §1, with “Cells” for “Cells were grown in RPMI 1640, 10% FBS, 2 mM L-alanyl-L-glutamine, 1 mM Na pyruvate, or a special medium. Cells”
as §2, §3, §5

[12] = system: OVCAR3; test: OncoPanel cell proliferation assay, OVCAR3; settings: for GI50: OVCAR-3, read-out: Cell Count GI50; for Cell Count Activity Area: OVCAR3
Experimental: as §6

[13] = Homo sapiens, read-out: Cell Count EC50
[14] = Homo sapiens, read-out: Cell Count IC50

EC50 [3, 13]: 0.65 nM | GI50 ([3]; Homo sapiens): 2.54 nM | IC50 [3, 14]: > 1000 nM | EC50 ([4]; Homo sapiens): 0.293 nM | GI50 ([4]; Homo sapiens): 0.361 nM | IC50 ([4]; Homo sapiens, SK-NEP-1, read-out: Cell Count IC50): 1.47 nM | EC50 ([6]; Homo sapiens): > 1000 nM | GI50 ([6]; Homo sapiens): > 1000 nM | IC50 [6, 14]: > 1000 nM | EC50 ([9]; Homo sapiens): 0.0136 nM | GI50 ([9]; Homo sapiens): 0.0539 nM | IC50 [9, 14]: > 1000 nM | EC50 ([12]; Homo sapiens, OVCAR-3, read-out: Cell Count EC50): 1.53 nM | GI50 ([12]; Homo sapiens): 124 nM | IC50 ([12]; Homo sapiens, OVCAR-3, read-out: Cell Count IC50): > 1000 nM
SMILES: CO[C@H]1C[C@@H]2CC[C@@H](C)[C@@](O)(O2)C(=O)C(=O)N2CCCC[C@H]2C(=O)O[C@H]([C@H](C)C[C@@H]2CC[C@@H](O)[C@H](OC)C2)CC(=O)[C@H](C)/C=C(\C)[C@@H](O)[C@@H](OC)C(=O)[C@H](C)C[C@H](C)/C=C/C=C/C=C/1C [Rapamycin, reference compound]
Cell Count Activity Area [1]: 6.22 | EC50 [1, 13]: 0.119 nM | GI50 ([1]; Homo sapiens): 0.155 nM | IC50 [1, 14]: 0.187 nM | Cell Count Activity Area [2]: 5.25 | EC50 [2, 13]: 0.0377 nM | GI50 ([2]; Homo sapiens): 0.158 nM | IC50 [2, 14]: 0.321 nM | Cell Count Activity Area [3]: 3.04 | Cell Count Activity Area [4]: 4.22 | Cell Count Activity Area [5]: 4.56 | EC50 ([5]; Homo sapiens): 0.189 nM | GI50 ([5]; Homo sapiens): 0.694 nM | IC50 [5, 14]: 1.93 nM | Cell Count Activity Area [6]: 1.99 | Cell Count Activity Area [7]: 2.92 | EC50 ([7]; Homo sapiens): 0.184 nM | GI50 ([7]; Homo sapiens): 0.721 nM | IC50 [7, 14]: > 1000 nM | Cell Count Activity Area [8]: 0.55 | EC50 [8, 13]: > 1000 nM | GI50 ([8]; Homo sapiens): > 1000 nM | IC50 ([8]; Homo sapiens): > 1000 nM | Cell Count Activity Area [9]: 4.77 | Cell Count Activity Area [10]: 1.52 | EC50 [10, 13]: > 1000 nM | GI50 ([10]; Homo sapiens): > 1000 nM | IC50 ([10]; Homo sapiens): > 1000 nM | Cell Count Activity Area [11]: 4.14 | EC50 ([11]; Homo sapiens): 0.0747 nM | GI50 ([11]; Homo sapiens): 0.0478 nM | IC50 ([11]; Homo sapiens, DMS-114, read-out: Cell Count IC50): > 1000 nM | Cell Count Activity Area [12]: 2.08

SMILES: CN[C@@H]1C[C@H]2O[C@@](C)([C@@H]1OC)n1c3ccccc3c3c4c(c5c6ccccc6n2c5c31)C(=O)NC4 [Staurosporine, reference compound]
Cell Count Activity Area [1]: 3.99 | GI50 ([1]; Homo sapiens): 13.2 nM | Cell Count Activity Area [2]: 6.03 | GI50 ([2]; Homo sapiens): 0.474 nM | GI50 ([3]; Homo sapiens): 2.63 nM | EC50 ([4]; Homo sapiens): 48.2 nM | GI50 ([4]; Homo sapiens): 36.5 nM | Cell Count Activity Area [4]: 2.78 | Cell Count Activity Area [5]: 4.13 | EC50 ([5]; Homo sapiens): 7.06 nM | GI50 ([5]; Homo sapiens): 6.96 nM | Cell Count Activity Area [6]: 3.80 | EC50 ([6]; Homo sapiens): 15.8 nM | GI50 ([6]; Homo sapiens): 4.97 nM | Cell Count Activity Area [7]: 4.56 | EC50 ([7]; Homo sapiens): 7.02 nM | GI50 ([7]; Homo sapiens): 2.65 nM | Cell Count Activity Area [8]: 4.06 | GI50 ([8]; Homo sapiens): 0.898 nM | IC50 ([8]; Homo sapiens): 7.04 nM | Cell Count Activity Area [9]: 6.09 | EC50 ([9]; Homo sapiens): 0.52 nM | GI50 ([9]; Homo sapiens): 0.506 nM | Cell Count Activity Area [10]: 3.31 | GI50 ([10]; Homo sapiens): 10.9 nM | IC50 ([10]; Homo sapiens): 11.9 nM | EC50 ([11]; Homo sapiens): 21 nM | GI50 ([11]; Homo sapiens): 3.35 nM | GI50 ([12]; Homo sapiens): 6.11 nM | Cell Count Activity Area [12]: 3.41
